Assay results from PubChem BioAssay AID1919006 (Molecular Pharmacology Branch, DTP, NCI, 2023).

Tested on: 885512-296-R-J2-PDC complex spheroid growth, % test/control
Assay: Anticancer human tumor 885512-296-R-J2-PDC patient-derived breast carcinoma cell line growth inhibition [AhR]
Settings: for IC50: curve of first compound; for viability, T/C: stronger effect = lower value
In short: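 Spheroids combined tumor cells with HUVEC endothelial cells and human MSCs as stroma. AhR antagonists were paired with standard or investigational drugs, each dosed in half-log steps down from near clinical Cmax, or from 10 microM where Cmax was unknown.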

[1] = second compound 0.1 µM, first compound 0.0316 µM
[2] = second compound 0.1 µM, first compound 0.1 µM
[3] = second compound 0.1 µM, first compound 0.316 µM
[4] = second compound 0.1 µM, first compound 1 µM
[5] = second compound 0.1 µM, first compound 3.16 µM
[6] = second compound 0.1 µM, first compound 10 µM
[7] = second compound 0.316 µM, first compound 0.0316 µM
[8] = second compound 0.316 µM, first compound 0.1 µM
[9] = second compound 0.316 µM, first compound 0.316 µM
[10] = second compound 0.316 µM, first compound 1 µM
[11] = second compound 0.316 µM, first compound 3.16 µM
[12] = second compound 0.316 µM, first compound 10 µM
[13] = second compound 1 µM, first compound 0.0316 µM
[14] = second compound 1 µM, first compound 0.1 µM
[15] = second compound 1 µM, first compound 0.316 µM
[16] = second compound 1 µM, first compound 1 µM
[17] = second compound 1 µM, first compound 3.16 µM
[18] = second compound 1 µM, first compound 10 µM
[19] = second compound 3.16 µM, first compound 0.0316 µM
[20] = second compound 3.16 µM, first compound 0.1 µM
[21] = second compound 3.16 µM, first compound 0.316 µM
[22] = second compound 3.16 µM, first compound 1 µM
[23] = second compound 3.16 µM, first compound 3.16 µM
[24] = second compound 3.16 µM, first compound 10 µM
[25] = second compound 10 µM, first compound 0.0316 µM
[26] = second compound 10 µM, first compound 0.1 µM
[27] = second compound 10 µM, first compound 0.316 µM
[28] = second compound 10 µM, first compound 1 µM
[29] = second compound 10 µM, first compound 3.16 µM
[30] = second compound 10 µM, first compound 10 µM
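Further: spheroids exposed to compounds for seven days.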

Row | Compound | IC50 (second compound 0.1 µM) | IC50 (second compound 0.316 µM) | IC50 (second compound 1 µM) | IC50 (second compound 3.16 µM) | IC50 (second compound 10 µM) | viability, T/C [1] | viability, T/C [2] | viability, T/C [3] | viability, T/C [4] | viability, T/C [5] | viability, T/C [6] | viability, T/C [7] | viability, T/C [8] | viability, T/C [9] | viability, T/C [13] | viability, T/C [14] | viability, T/C [19] | viability, T/C [20] | viability, T/C [25] | viability, T/C [26] | also measured
1 | COc1cc(Nc2ncc3c(n2)-c2ccc(Cl)cc2C(c2c(F)cccc2OC)=NC3)ccc1C(=O)O + CC(CO)NC(=O)c1cc(-c2ccc(Cl)cc2)nn(-c2cnn(C)c2)c1=O | 2440 nM | 234 nM | 456 nM | 1350 nM | > 10000 nM | 53% | 48.3% | 51.4% | 57.6% | 46.4% | 48.3% | 54.9% | 45.5% | 55% | 57.6% | 51.2% | 59.6% | 55.5% | 48.5% | 59.5% | viability, T/C [10]: 43.3%; viability, T/C [11]: 45%; viability, T/C [12]: 37%; viability, T/C [15]: 55.7%; viability, T/C [16]: 46.7%; viability, T/C [17]: 43%; viability, T/C [18]: 50.2%; viability, T/C [21]: 51.2%; viability, T/C [22]: 55.5%; viability, T/C [23]: 44.6%; viability, T/C [24]: 46.2%; viability, T/C [27]: 58.4%; viability, T/C [28]: 62.3%; viability, T/C [29]: 56.2%; viability, T/C [30]: 50.5%
2 | Cn1ncnc1C1c2n[nH]c(=O)c3cc(F)cc(c23)NC1c1ccc(F)cc1 (stereo not given) + CC(CO)NC(=O)c1cc(-c2ccc(Cl)cc2)nn(-c2cnn(C)c2)c1=O | > 100 nM | > 100 nM | > 100 nM | > 100 nM | > 100 nM | 87.1% | 69.1% | – | – | – | – | 73% | 63.9% | – | 79.1% | 64.7% | 84.9% | 64.6% | 67.1% | 51.1% | viability, T/C (second compound 0.1 µM, first compound 0.000316 µM): 107%; viability, T/C (second compound 0.1 µM, first compound 0.001 µM): 108%; viability, T/C (second compound 0.1 µM, first compound 0.00316 µM): 103%; viability, T/C (second compound 0.1 µM, first compound 0.01 µM): 96.6%; viability, T/C (second compound 0.316 µM, first compound 0.000316 µM): 102%; viability, T/C (second compound 0.316 µM, first compound 0.001 µM): 96.9%; viability, T/C (second compound 0.316 µM, first compound 0.00316 µM): 98.5%; viability, T/C (second compound 0.316 µM, first compound 0.01 µM): 107%; viability, T/C (second compound 1 µM, first compound 0.000316 µM): 104%; viability, T/C (second compound 1 µM, first compound 0.001 µM): 96.4%; viability, T/C (second compound 1 µM, first compound 0.00316 µM): 101%; viability, T/C (second compound 1 µM, first compound 0.01 µM): 89.3%; viability, T/C (second compound 3.16 µM, first compound 0.000316 µM): 90.1%; viability, T/C (second compound 3.16 µM, first compound 0.001 µM): 101%; viability, T/C (second compound 3.16 µM, first compound 0.00316 µM): 107%; viability, T/C (second compound 3.16 µM, first compound 0.01 µM): 82.9%; viability, T/C (second compound 10 µM, first compound 0.000316 µM): 96.7%; viability, T/C (second compound 10 µM, first compound 0.001 µM): 97.9%; viability, T/C (second compound 10 µM, first compound 0.00316 µM): 88.9%; viability, T/C (second compound 10 µM, first compound 0.01 µM): 79.2%
3 | NS(=O)(=O)OCC1CC(n2ccc3c(NC4CCc5ccccc54)ncnc32)CC1O (stereo not given) + CC(CO)NC(=O)c1cc(-c2ccc(Cl)cc2)nn(-c2cnn(C)c2)c1=O | 97 nM | 98.9 nM | 101 nM | 89.1 nM | 58.7 nM | 111% | 48.4% | 15% | 7.66% | 6.85% | 5.35% | 97.6% | 49.5% | 15.9% | 106% | 50.3% | 84.1% | 46.1% | 65.6% | 36.1% | viability, T/C [10]: 7.66%; viability, T/C [11]: 5.71%; viability, T/C [12]: 6.67%; viability, T/C [15]: 17.3%; viability, T/C [16]: 7.69%; viability, T/C [17]: 7.18%; viability, T/C [18]: 7.68%; viability, T/C [21]: 16.7%; viability, T/C [22]: 7.54%; viability, T/C [23]: 7.16%; viability, T/C [24]: 7.08%; viability, T/C [27]: 19.3%; viability, T/C [28]: 8.18%; viability, T/C [29]: 6.74%; viability, T/C [30]: 6.33%
4 | O=C(C=Cc1cccc(S(=O)(=O)Nc2ccccc2)c1)NO + CC(CO)NC(=O)c1cc(-c2ccc(Cl)cc2)nn(-c2cnn(C)c2)c1=O | 1490 nM | 1520 nM | 1510 nM | 1320 nM | 909 nM | 89.9% | 91.5% | 79.6% | 50.1% | 40.4% | 10.1% | 89.8% | 84.8% | 79.4% | 96% | 101% | 81.3% | 86.5% | 86.5% | 79.1% | viability, T/C [10]: 51%; viability, T/C [11]: 39.9%; viability, T/C [12]: 9.03%; viability, T/C [15]: 80.8%; viability, T/C [16]: 50.6%; viability, T/C [17]: 40.9%; viability, T/C [18]: 9.28%; viability, T/C [21]: 74.1%; viability, T/C [22]: 48%; viability, T/C [23]: 38.1%; viability, T/C [24]: 8.4%; viability, T/C [27]: 68.1%; viability, T/C [28]: 43.5%; viability, T/C [29]: 31.9%; viability, T/C [30]: 6.06%
